Reference: a melting point compilation (Tetko et al.; mined from patent text by program, amines drawn as free bases though some values may be those of a salt)
Residues, ends and D or L forms follow the SMILES beside them. *: point of attachment. Boc = CC(C)(C)OC(=O)*; NHNH2 = NN*

SMILES | melting point
O=C1N=C(N2CCOCC2)SC1=Cc1cc(-c2ccccc2)cc(-c2ccc(O)c(C34CC5CC(CC(C5)C3)C4)c2)c1 | 315 to 320 °C
CC(C)CC(O)(Cn1ccnn1)c1ccccc1 (stereo not drawn) | 94 to 95 °C
NC(=O)c1ccc(OC(F)(F)F)c(Cl)c1 | 98 °C
Cc1cc2c(c(C)c1NC(=O)OC(C)(C)C)C(=O)C(C)(C)O2 | 156 to 157 °C
Cc1[nH]cc(C(N)=O)c(=O)c1I | 296 to 298 °C
CCOC(=O)Nc1cc2nc(O)c(O)nc2cc1Cl | > 300 °C
CCCC(=O)c1cnc2ccccc2c1Nc1ccccc1OC | 167 to 168 °C
C=CCNc1cc(Oc2ccccc2)c(Cl)cc1[N+](=O)[O-] | 81 to 82 °C
COc1ccc2c(c1)C(c1ccccc1)NC(=S)N2CC1CC1 (stereo not drawn) | 146 to 147 °C
COc1cccc(NC(=O)NC2N=C(C)c3cccc(C)c3N(CC(=O)N3CC4CCC(CC4)C3)C2=O)c1 (stereo not drawn) | 170 to 171 °C
Cc1nc(C)n(-c2cc([C@@H]3C[C@H]3c3nc4ccccc4n3C)nc(C3CC3)n2)n1 (relative stereo) | 180 to 182 °C
CC(C)CC(C)c1ccccc1NC(=O)c1cn(C)cc1C(F)(F)F (stereo not drawn) | 83 to 85 °C
O=c1nc(-c2ccccn2)sc2cccc(F)c12 | 256 to 257 °C
CNc1nn(C(=O)Cl)c(=O)n1C | 185 °C
O=C(CSCCOc1ccccc1)c1ccc2[nH]c3ncc(Cl)cc3c2c1 | 167 to 168 °C
O=C1CNC(=O)N1c1ccc([N+](=O)[O-])cc1 | 250 to 251 °C
CN(c1ccc2c(c1)CCC2)c1nc(=O)c2cccnc2s1 | 157 to 160 °C
Cc1ccc(S(=O)(=O)N(c2ccc(Cl)cc2C(=O)O)C(C)C)cc1 | 175 to 176 °C
CS(=O)(=O)c1ccccc1-c1cc(F)cc(OCc2ccc3c(-c4ccoc4)cc(C#N)nc3c2)c1 | 186 to 187 °C
c1ccc2c(CSCc3cccc4ccccc34)cccc2c1 | 104 to 106 °C
O=C(O)CCNC(=O)CNC(=O)c1csc(NC(=O)NCc2ccccc2)n1 | 174 °C
CCc1nn(C2CCC2)c2cc(C(=O)Nc3c(Cl)cncc3Cl)ccc12 | 166 to 168 °C
COC(=O)C1CCCCCCCSC[C@@H](C(=O)OC)NC1=O (stereo partly drawn) | 156 to 164 °C
CCOC(=O)c1ccc(NC(C)c2ccccc2)cc1 (stereo not drawn) | 88 °C
C#Cc1cc(NC(=O)c2cnn(-c3ccc(Cl)cc3)c2C)ccc1N1CCC(N2CCOCC2)CC1 | 203 to 205 °C

SMILES | melting point
CCON(C(=O)c1cn(C)nc1C(F)F)C(C)Cc1c(Cl)cc(Cl)cc1Cl (stereo not drawn) | 111 to 114 °C
Cc1nc2cc3c(cc2o1)C1(CO3)C(=O)N(C(c2ccccc2)c2ccccc2)c2ccccc21 (stereo not drawn) | 240 to 242 °C
Cn1ncnc1COc1nn2c(-c3ccccc3F)nncc2c1-c1cccc(C(F)(F)F)c1 | 152 to 155 °C
Cn1cc(-c2ccccc2)nc1CO | 191 to 192 °C
CS(=O)(=O)c1ccc(-c2oc(C(c3ccccc3)c3ccccc3)nc2-c2ccc(F)cc2)cc1 | 155 to 156 °C
N#CNc1cc(Cl)ccc1N1CCOCC1 | 305 to 308 °C
C=CCNc1nnc(-c2ccc(F)c(F)c2Nc2ccc(I)cc2F)o1 | 175 to 178 °C
COc1cc(NC(C)=O)ccc1N1CCN(CCCNc2c(C)c(=O)n(C)c(=O)n2C)CC1 | 178 to 180 °C
CC(=O)C1(c2ccccc2)CCN(C(=O)C(c2ccccc2)n2cnc3[nH]ncc3c2=S)CC1 (stereo not drawn) | 125 to 128 °C
COC(=O)C(=C\c1c(OC)cc(OC)cc1OC)/C(=C\c1ccccc1)C(=O)O | 208 to 210 °C
CC(=O)N1CCc2ccc(S(=O)(=O)C(F)(F)F)cc2C1 | 199 to 200 °C
COCCc1nc2c(N)nc3ccccc3c2n1CCCCNC(=O)c1ccc(-n2cccc2)cc1 | 173 to 175 °C
Cc1ccc(NC(=O)c2ccc(C(=O)Nc3ccccc3NC(=O)OC(C)(C)C)s2)cc1Nc1nc(-c2cccnc2)cs1 | 218 °C
Cc1cc(-c2nn(C(C)c3oc4ccccc4c(=O)c3-c3cccc(F)c3)c3ncnc(N)c23)ccn1 (stereo not drawn) | 266 to 268 °C
CN(C)S(=O)(=O)c1cc2cc(C(=O)O)oc2c(Cl)c1Cl | 242 to 245 °C
FC(F)C(F)(F)Oc1cccc(Nc2nccc(-c3c[nH]c4ccccc34)n2)c1 | 140 to 142 °C
CC(C)CC(NC(=O)OC(C)(C)C)C(=O)NCC(=O)NCC(=O)NC(C)C(=O)NCC(=O)NN (stereo not drawn) (Boc-LGGAG-NHNH2; configuration not given here) | 174 to 176 °C
CC(C)(CCc1noc(=O)[nH]1)c1ccc(C(=O)Nc2cn3cc(C(F)(F)F)ccc3n2)cc1 | 268 to 270 °C
CC(C)(CCCc1cccc2cncn12)CC(=O)O | 124 to 129 °C
Nc1sc2c(c1C(=O)c1ccccc1)CCNC2 | 160 to 162 °C
COC(=O)[C@H](Cc1ccc(OS(=O)(=O)c2ccc(C)cc2)cc1)NC(=O)OC(C)(C)C | 78.8 to 79.5 °C
Nc1ccc(S(=O)c2ccc(-c3ccc(Br)cc3)cc2)cc1[N+](=O)[O-] (stereo not drawn) | 218 to 220 °C
CCCCOc1ccc(S(=O)(=O)NC(=O)c2ccc(C(=O)OC)nc2)cc1 | 174 to 176 °C
CNC(=O)c1cc(Oc2ccc(NC(=O)Nc3ccc4c(c3)C(F)(F)OC(F)(F)O4)c(S(C)(=O)=O)c2)ccn1 | 222 to 224 °C
CC#CCC/C=C/CC(=O)O | 43 to 45 °C

SMILES | melting point
Clc1ncnc2[nH]nc(-c3ccccc3)c12 | > 250 °C
CC1CCCN1CCCN1CCN(CCN2CCCC2)C1=C(C#N)C#N (stereo not drawn) | 95 to 96 °C
CC(C)c1ccc(-n2c(CC(=O)O)c(C(=O)O)c3cc(Oc4ccc(Cl)cc4)ccc32)cc1 | 174 to 180 °C
N#Cc1ccc2oc(C(=O)CBr)cc2c1 | 156 to 158 °C
COC(=O)c1ccc(OCCNC(=O)C2Cc3ccccc3N2S(=O)(=O)c2ccc(-c3ccc(F)cc3)cc2)c(C(F)(F)F)c1 (stereo not drawn) | 90 to 95 °C
COC(=O)NN=Cc1ccc(Oc2ccc(F)cc2)cc1 | 109 to 111 °C
Clc1ccc(CNc2nc(-c3nccc4ccccc34)nc3ccccc23)cc1 | 221 to 224 °C
O=[N+]([O-])c1cccc(C=[N+]([O-])c2cccc(CO)c2)c1 | 177 to 179 °C
FC(F)(F)c1ccc(-c2ncc(-c3cccs3)s2)cc1 | 154 to 155 °C
CCC(=O)c1ccc(CN2C(=O)c3ccccc3C2=O)s1 | 104 to 106 °C
CCCOc1ccccc1-c1nc2ccccc2c(=O)[nH]1 | 88 to 89 °C
Fc1ccc(OCc2cccc(Oc3ccnc(Cl)c3)n2)cc1 | 103 °C
O=C(NCCCCCCCCn1ccnc1)c1cc2cc(Cl)ccc2[nH]1 | 187 to 189 °C
CNc1nccc(-c2cc(NCCCNc3ncnc4[nH]nc(Br)c34)c3cc(OC)ccc3c2)n1 | 145 to 148 °C
CNc1c(C/C=C(\C)CCC(=O)O)c(OC)c(C)c2c1C(=O)OC2 | 121 to 124 °C
ONC=Nc1ccc(N2CCSCC2)c(Cl)c1 | 137 to 138 °C
Cc1cc2c(cc1-c1cc(C=CC(=O)O)n(C)c1)C(C)(C)CCC2(C)C | 185 to 186 °C
CCCc1ccc2ncc(C(=O)NCc3ccc(Cl)cc3)c(O)c2c1 | 225 to 227 °C
C=CCOC(=O)C1=C(C)NC(C)=C(C(=O)OC)C1c1cccc([N+](=O)[O-])c1 (single isomer, unassigned; (-)) | 215 to 217 °C
CCCCc1nc(Cl)c(CO)n1Cc1ccc2oc(-c3ccccc3-c3nnn[nH]3)c(Br)c2c1 | 193 to 197 °C
CCOc1cc(C(=CC#N)c2ccc(OC)c(-n3cccc3)c2)ccc1OC | 109 to 111 °C
CC(C)(C)OC(=O)N1C2CCC1CN(CCCNc1ccc(C#N)cc1)C2 | 124 to 127 °C
CC1=CC(=O)C=C2CC(C)C3C4CCC(=O)C4(C)CCC3C12C (stereo not drawn) | 148 to 151 °C
CCOCc1nc(C(C)(C)O)c(C(=O)OCc2oc(=O)oc2C)n1Cc1ccc(-c2ccccc2-c2nnn[nH]2)cc1 | 166 to 168 °C
CCOC(=O)c1ccc(/C=C/c2c(C)cc3c(c2OC)C(C)(C)CCC3(C)C)cc1 | 123 °C

SMILES | melting point
N#Cc1cnc2sc(Br)cc2c1O | > 255 °C
CSCn1c(C(F)(F)F)nc2c(Br)cc(C(F)(F)F)cc21 | 56 to 60 °C
O=C1CN=C(c2ccc(O)cc2)c2cc(Cl)ccc2N1 | 271 to 272 °C
CCc1cccc(CC)c1C(=O)Nc1nnc(C(C)(CC)CC)s1 | 186 to 188 °C
CCCSc1ncc(C=C(Cc2cccs2)C(=O)O)n1Cc1ccccc1Cl | 161 to 162 °C
CC(CS)C(=O)N1C(=O)CC[C@H]1C(=O)O (stereo partly drawn) | 101 to 108 °C
O=C1c2cc([N+](=O)[O-])ccc2CC2CCCCCN12 (stereo not drawn) | 118 to 119 °C
CC(C)(C)Nc1c(NCc2cc3cc(C#N)ccc3o2)c(=O)c1=O | 299 to 300 °C
CCOC(=O)CCCCCNS(=O)(=O)c1ccc(Cl)cc1 | 102 to 105 °C
O=c1ccn(CCO)c(C(O)c2ccccc2)c1O (stereo not drawn) | 198 to 200 °C
CCOC(=O)CC[C@H](NC(=O)c1ccc(N)cc1F)C(=O)OCC | 130 to 132 °C
CC(=O)Oc1cccc2c1C(=O)C(CN1CCC(O)(c3ccccc3)CC1)CC2 (stereo not drawn) | 170 to 172 °C
Cc1ccccc1CCNC(=O)c1ccc(Cl)cc1 | 95 to 96 °C
COc1cc2c(cc1OC)[C@@H]1CN(C)CC[C@@H]1N=C2c1ccc(Cl)c(Cl)c1 (relative stereo) | 183 to 184 °C
CC(C)c1cc(-c2cc(C(=O)O)ccc2S(C)(=O)=O)on1 | 176 to 178 °C
COC(=O)c1ccc(-c2nn(-c3ccc(C(N)=O)cc3)c3ccccc23)cc1 | 267 to 269 °C
OCC(CO)C1c2ccccc2-c2ccccc21 | 101 °C
N#Cc1cccc2c1C(=O)C(O)=C(O)C2=O | 305 to 312 °C
O=C(O)N1CCN2c3sc4c(c3CN(c3ccccc3Cl)CC12)CC=C4 (stereo not drawn) | 315 °C
CCOC(=O)Cn1nnnc1S(=O)(=O)c1ccc(C)cc1 | 98 to 100 °C
C=CCNc1cc(OCC=C)c(C(=O)O)cc1Cl | 83.5 to 86 °C
NC(=O)c1nc(-c2cccnc2)nc2c1[nH]c(=O)n2Cc1ccccc1 | 334 to 335 °C
O=C(O)c1cccc(-c2cccn3c(=O)n(Cc4cccc(C(F)(F)F)c4)nc23)c1 | 218 to 222 °C
